Assay: Stability of the disinfectant (LAE) in contact with the polyamide lacquer, LC-MS of the film
Format: physicochemical
Details: Spray 1 (composition of Example 1) in polyamide-lacquered container, 3 months at 50° C.; LAE measured in film
Method: Besides, the stability of the disinfectant (LAE) present in the composition of Example 1 of the present invention in contact with the polyamide lacquer of the container was measured. Full containers loaded with Spray 1 of the present invention were controlled at 50° C. for 3 months, at 40° C. form 4 to 9 months, and at 30° C. from 6 to 18 months. After that time, the composition was applied to a surface to form the adherent film, in which the amount of LAE was calculated (mg of LAE/g of film).
The method for calculating the amount of LAE consists of a liquid chromatography-mass spectrometry (LC-MS) analysis of the tested sample previously sprayed into a container (glass flask) and dried into a rotary evaporator. The exact and constant weight of the residue is determined. This residue is dissolved in Acetonitrile and doped with a known volume solution of a solution f the internal pattern (Dodine, commercially available) in a known concentration. Then it is stirred and then, pure water at pH 3-4 (acidified with HCl) is added still flushing, this allows precipitating the polymer. The supernatant is filtered and punctured by LC-MS.
• Detector: ACQ-QDa mass Detector • Column: Kromasil 100-5-C18 150×4.0 mm. (5 μm, 100 Å) • System design: Mobil phase entrance-Column-PDA entrance-QDa entrance-Waste Exit
• Fluxe: 1.00 mL/min. […]

CCCCCCCCCCCC(=O)N[C@@H](CCCN=C(N)N)C(=O)OCC.Cl [LAE, Ethyl lauroyl arginate hydrochloride salt]
reduction of the amount of disinfectant (LAE): about 11%

Reference: US12697411B2, “In-situ film-forming composition” (priority 2021, dated 2026)
